In US20070286890A1, “Eyelash applicator and method” (priority 2006, published 2007):

System: eyelashes of healthy female volunteers
Test: Open-label study of Lumigan applied with an applicator to the upper eyelid margin, four months
Format: in vivo, human
[1] = one drop on applicator tip, applied to lid margin of both upper eyelids before bedtime, through week 12, 25 volunteers, no controls, preliminary findings

In the case of `CCNC(=O)CCC/C=C\C[C@@H]1[C@@H](/C=C/[C@@H](O)CCc2ccccc2)[C@H](O)C[C@@H]1O` [Lumigan®, cyclopentane N-ethyl heptanamide-5-cis-2-(3α-hydroxy-5-phenyl-1trans-pentenyl)-3,5-dihydroxy, [1α,2β,3α,5α]], the “Darker and thicker lashes, additional lashes” value [1] is reported as “many grew darker and thicker lashes as well as additional lashes”, the “Eyelash length (longer lashes)” value [1] is reported as “Every participant grew longer lashes” and the “Growth of lower lid lashes and eyebrow hairs” value (patients applied Lumigan "on their own" to these areas) is reported as “grew lower lid lashes and eyebrow hairs”. The “Side effects (vision, IOP, ocular irritation, periocular pigmentary changes)” value (topical application to upper eyelid margin, through week 12, visits up to week 16, preliminary findings) was “Minimal Side Effects”.
